Read-outs that look alike come from different tables or passages of the source.
Key:
AT2R = molecular target: T1, AT2R (Homo sapiens, UniProt P50052); test: AT2R displacement assay with radiolabeled Ang II; type: binding; conditions: displacement of radiolabeled Ang II or analogs; read-out: EC50 displacing Ang II in the AT2R displacement assay
T1 sequence (P50052 1-363): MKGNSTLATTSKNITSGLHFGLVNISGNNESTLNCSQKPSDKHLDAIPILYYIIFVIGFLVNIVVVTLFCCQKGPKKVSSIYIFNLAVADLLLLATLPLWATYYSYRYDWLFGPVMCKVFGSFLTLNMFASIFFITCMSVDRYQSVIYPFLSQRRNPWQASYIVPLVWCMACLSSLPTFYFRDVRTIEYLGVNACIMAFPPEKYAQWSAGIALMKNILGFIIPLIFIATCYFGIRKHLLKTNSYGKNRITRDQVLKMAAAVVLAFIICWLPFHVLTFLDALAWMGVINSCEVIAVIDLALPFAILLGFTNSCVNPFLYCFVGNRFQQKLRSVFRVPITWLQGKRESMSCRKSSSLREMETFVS
Experimental: Compound 7 was evaluated in vitro for its ability to compete with ratholabeled Ang II or analogs in a displacement assay for AT1R and AT2R receptors.

Mas = molecular target: T2, Mas (Homo sapiens, UniProt P04201); test: NO production in CHO cells stably transfected with Human Mas1; type: cell-based; conditions: for NO production with co-administration of A779: with A779, selective Mas antagonist, 1×10^−7 M
T2 construct: expressed in transfected cells
T2 sequence (P04201 1-325): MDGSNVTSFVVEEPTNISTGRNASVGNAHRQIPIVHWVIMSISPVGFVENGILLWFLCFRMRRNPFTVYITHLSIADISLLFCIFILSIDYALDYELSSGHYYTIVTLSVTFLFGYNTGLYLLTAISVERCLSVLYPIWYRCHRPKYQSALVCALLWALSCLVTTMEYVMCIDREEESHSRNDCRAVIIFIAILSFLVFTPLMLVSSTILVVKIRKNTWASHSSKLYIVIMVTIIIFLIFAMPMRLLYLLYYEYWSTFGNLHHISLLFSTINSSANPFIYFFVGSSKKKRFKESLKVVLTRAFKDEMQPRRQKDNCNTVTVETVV
Experimental: Transfected cells that express Mas were used to identify and evaluate provided compounds as Mas agonists, by promoting NO production as readouts. CHO cells stably transfected with pTEJ-8 vector containing recombinant Human Mas1 clone were grown to confluency. Cells were washed three times for 30/5/5 minutes with prewarmed (37° C.) Tyrodes Salts (supplemented with 1 g/L NaHCO3, and 1.9 g/L d-Glucose). Cells were incubated for a short time in 700 μL of supplemented Tyrodes salts containing 10 μM PTIO, 100 μM DAN, and 1 mM L-arginine. When using antagonist for competition assays, cells were exposed to the inhibitor at 1×10^−7 M for 15 minutes, before additional drugs are added.
Chemicals (10^−8 to 10^−6 M or the maximum concentration found not to cause cytotoxicity) to be screened were added to the cell medium and the plates were agitated for 1 minute before being placed into the incubator for 2 hours. After 2 hours, cellular supernatants were transferred to opaque 96 well plates, and the fluorescence intensity was recorded at an ex/em of 380/425.

db/db mice [1] = test: Fasting blood glucose in db/db mice; type: in vivo
Experimental: Mice homozygous for the diabetes spontaneous mutation Lepr^db (BKS.Cg-Dock7^m+/+Lepr^db/J), which is an obese model of type 2 diabetes as a consequence of truncation of the leptin receptor, have verified plasma glucose levels >500 mg/dL prior to initiation of treatment. Food and water were available ad libitum, and all mice were kept on a 12-hour light/dark cycle. BKS.Cg-Dock7^m+/+Lepr^db/J mice and their heterozygous controls (n=6/group) were administered either saline (control), Ang-(1-7) (500 mcg/kg/day), or Compound 7 500 mcg/kg/day for two weeks by subcutaneous (SC) injection. Mice were fasted overnight prior to assessment of plasma glucose levels. Blood was taken from the saphenous vein and tested for glucose levels by a glucometer.

db/db mice [2] = test: Organ weights (organmegaly) in db/db mice; type: in vivo; conditions: 14 days
Description: Compound 7 (500 mcg/kg/day) or Ang(1-7) (500 mcg/kg/day) treated db/db mice were euphanized after 14 days of treatment. At necropsy, organs were collected for histology and weights. In FIG. 6A to 6C, hearts, left and right kidney normalized to tibia length were weight where db/db treated with Compound 7 were lower than db/db-controls (saline) and db/db treated with Ang(1-7).

db/db mice [3] = test: Liver lipid levels, Oil Red O staining, in db/db mice; type: in vivo; conditions: 500 mcg/kg/day, 14 days
Experimental: The lipid levels found in the liver was evaluated in db/db animals treated for 14 days with vehicle, 500 mcg/kg/day Ang(1-7) or Compound 7. Livers isolated from mice were harvested. Liver tissue sections were washed with cold saline and frozen in the presence of optimum cutting temperature (OCT) formulation. Tissues were then cut into 10-μm sections using a cryostat. Oil Red O staining and H&E staining were performed according to published procedures (Yang et al., 2013). The tissues were observed and images acquired using a light microscope (Olympus BX51) (FIG. 6).

MDA MB 231 = test: MTT cellular viability of MDA MB 231 breast cancer cell line; type: cell-based; conditions: for IC50: Homo sapiens, MDA-MB-231, MTT
Experimental: Compound 7 was evaluated for its ability to modulate cancer proliferation using MDA MB 231 breast cancer cell line. MDA MB 231 was treated with increasing concentration of Compound 7 ranged from 1×10^−12 to 1×10^−3 M, where the cells were incubated for 48 hours. After the incubation, cellular viability was evaluated using 3-(4,5-dimethylthiazol-2-yl)-2,5-diphenyltetrazolium bromide or MTT, where viable cells are able to reduce MTT to formazan and form an insoluble crystal. The solubilized crystal can be spectrometrically determine, where cellular viability is compared to cells treated with vehicle. The cellular viability of MDA MB 231 is summarized (FIG. 9). […] Rather at 1×10^−12 M ([…]) of Compound 7, the cellular proliferation was only 70% of vehicle treated.

C57Bl/6 mice = test: Acute toxicity in C57Bl/6 mice; type: in vivo; conditions: 500 μg/kg subcutaneous or intravenous, 7 days after treatment
Experimental: Compound 7 was evaluated for acute toxicity at 500 μg/kg in C57Bl/6 mice that was given as either a subcutaneous or intravenous injection, and its safety was evaluated for 7 days after treatment.

[4] = 500 mcg/kg/day, p<0.05 vs db/db controls

What does the source list for `CCCCOC(=O)NS(=O)(=O)c1ccc(OC(F)(F)F)cc1-c1ccc(Cn2ccnc2)cn1` [Compound 7, butyl (2-(5-((1H-imidazol-1-yl)methyl)pyridin-2-yl)-4-(trifluoromethoxy)phenyl)sulfonylcarbamate]?
EC50 (AT2R): > 10000 nM; ability to enhance NO production (fluorescence) (Mas; Mas-transfected CHO cells): concentration dependent increase in NO; EC50 (Mas; Mas-transfected CHO cells, 2 hours): 10 nM; NO production with co-administration of A779 (Mas): back to baseline; NO production with co-administration of A779 (Mas; listed as compound 7): back to baseline fluorescence; reduction of peripheral glucose versus vehicle or Ang(1-7) treated mice (db/db mice [1]; 500 μg/kg/day, 14 days): > 40%; reduction of FBG in terms of the excess blood glucose over non-diabetic controls (db/db mice [1]; 500 mcg/kg/day SC, two weeks): 72%; fasting blood glucose (FBG) versus db/db mice treated with saline (db/db mice [1]; 500 mcg/kg/day SC, two weeks, p<0.05): significantly lower; right kidney weight (db/db mice [2]; 500 μg/kg/day): trended to be similar to heterozygous control; development of cardiomegaly (heart weight normalized to tibia length) (db/db mice [2]; [4]): prevent the development of cardiomegaly; development of left kidney hypertrophy (weight normalized to tibia length) (db/db mice [2]; [4]): prevent; Oil Red staining of liver (lipid deposition) compared with db/db controls (db/db mice [3]): reduced Oil Red staining; IC50 (MDA MB 231; 48 hours, read-out: IC50 (MDA MB 231 proliferation)): 58 nM; IC50 (MDA MB 231; 48 hours, read-out: IC50 (MDA MB 231 viability, Hill-slope analysis)): 58.2 nM; effect on breast cancer cell proliferation (MDA MB 231; MDA MB 231, 1×10^−12 to 1×10^−3 M): did not increase breast cancer cell proliferation; cellular proliferation, % of vehicle treated (MDA MB 231; MDA MB 231, at 1×10^−12 M, 48 hours): 70%; acute toxicity (C57Bl/6 mice): No overt signs of toxicity

From patent US10301298B2, “Methods, compounds, and compositions for the treatment of angiotensin-related diseases” (University of Southern California, priority 2013, dated 2019)
